Data: patent US20240381872A1, “SUBSTITUTED 2,3-DIHYDRO[1,3]THIAZOLO[4,5-B]PYRIDINES, SALTS THEREOF AND THEIR USE AS HERBICIDALLY ACTIVE SUBSTANCES” (BAYER AKTIENGESELLSCHAFT, priority 2021, published 2024)

How the values were obtained:
Assay type in all cases: in vivo
[1] = system: Abutilon theophrasti (ABUTH); test: Herbicidal pre-emergence action, section A (Table A1); settings: application rate 1280 g/ha; visual grading after ca. 3 weeks vs untreated controls
Procedure, shortened: (§1)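 WP/EC formulations, aqueous, 0.5% additive, 600 l/ha → soil surface over seeds in sandy loam → greenhouse, optimum growth → visual % damage vs untreated at ca. 3 weeks.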

[2] = system: Echinochloa crus-galli (ECHCG); test: Herbicidal pre-emergence action, section A (Table A3); settings: visual grading after ca. 3 weeks vs untreated controls
Procedure, shortened: as §1

[3] = system: Lolium rigidum (LOLRI); test: Herbicidal pre-emergence action, section A (Table A5); settings: visual grading after ca. 3 weeks vs untreated controls
Procedure, shortened: as §1

[4] = system: Matricaria inodora (MATIN); test: Herbicidal pre-emergence action, section A (Table A6); settings: application rate 320 g/ha; visual grading after ca. 3 weeks vs untreated controls
Procedure, shortened: as §1

[5] = system: Amaranthus retroflexus (AMARE); test: Herbicidal pre-emergence action, section A (Table A11)
Procedure, shortened: as §1

[6] = system: Digitaria sanguinalis (DIGSA); test: Herbicidal pre-emergence action, section A (Table A12)
Procedure, shortened: as §1

[7] = system: Lolium rigidum (LOLRI); test: Herbicidal post-emergence action, section B (Table B5); settings: visual rating about 3 weeks after treatment vs untreated controls
Procedure, shortened: (§2)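 Scores are visual % activity relative to untreated plants (0% = like control, 100% = dead), taken about 3 weeks after spraying. Compounds, as WP or EC in water with 0.5% additive at 600 L/ha, went onto one-leaf-stage weeds grown from seed in sandy loam under greenhouse conditions.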

[8] = system: Veronica persica (VERPE); test: Herbicidal post-emergence action, section B (Table B10); settings: visual rating about 3 weeks after treatment vs untreated controls
Procedure, shortened: as §2

[9] = system: Amaranthus retroflexus (AMARE); test: Herbicidal post-emergence action, section B (Table B11); settings: visual rating about 3 weeks after treatment vs untreated controls
Procedure, shortened: as §2

[10] = system: Matricaria inodora (MATIN); test: Herbicidal pre-emergence action, section C (Table C6); settings: visual grading after ca. 3 weeks
Excerpt: Seeds of mono- and dicotyledonous weed plants and crop plants were sown, in plastic or organic planting pots, in sandy loam and covered with soil. The compounds according to the invention, formulated in the form of wettable powders (WP) or as emulsifiable concentrates (EC), were applied to the surface of the covering soil as aqueous suspension or emulsion, with the addition of 0.5% of an additive, at an application rate of 600 l of water/ha (converted). Following treatment, the pots were placed in a greenhouse and kept under optimum growth conditions for the test plants. The visual grading of the damage to the test plants was carried out after ca. 3 weeks in comparison to untreated controls (herbicidal effect in percent (%): 100% effect=plants have died off, 0% effect=as control plants).

[11] = system: Alopecurus myosuroides (ALOMY); test: Herbicidal post-emergence action, section E (Table E2); settings: application rate 320 g/ha, assessed visually after ca. 3 weeks
Excerpt: (§3) Seeds of mono- and dicotyledonous weed plants and crop plants were sown, in plastic or organic planting pots, in sandy loam, covered with soil and grown in a greenhouse under controlled growth conditions. 2 to 3 weeks after sowing, the test plants were sprayed in the single-leaf stage. The compounds according to the invention, formulated in form of wettable powders (WP) or as emulsifiable concentrates (EC), were sprayed onto the green plant parts as aqueous suspension or emulsion, with the addition of 0.5% of an additive, at an application rate of 600 l of water/ha (converted). The test plants were placed in the greenhouse for ca. 3 weeks under optimum growth conditions, and then the effect of the preparations was assessed visually in comparison with untreated controls (herbicidal effect in percent (%): 100% effect=plants have died off, 0% effect=as control plants).

[12] = system: Echinochloa crus-galli (ECHCG); test: Herbicidal post-emergence action, section E (Table E5); settings: application rate 320 g/ha, visual assessment ca. 3 weeks after spraying
Excerpt: as §3

[13] = system: Polygonum convolvulus (POLCO); test: Herbicidal post-emergence action, section E (Table E7); settings: application rate 320 g/ha, visual assessment ca. 3 weeks after spraying
Procedure, shortened: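 WP/EC sprayed on single-leaf plants (sandy loam, greenhouse, 2–3 wk post-sowing), 0.5% additive, 600 l/ha water; visual % damage vs untreated at ~3 wk.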

[14] = system: Amaranthus retroflexus (AMARE); test: Herbicidal post-emergence action, section E (Table E3); settings: application rate 320 g/ha, assessed visually after ca. 3 weeks
Excerpt: as §3

Compound: Cc1cc2c(nc1-c1ccccc1F)N(C(=O)C13CCCC1C(Cl)=NO3)CS2 (centres unmarked) [Example I-104]
- pre-emergence activity against ABUTH in % [1]: 90%
- pre-emergence activity against ECHCG in % ([2]; application rate 320 g/ha): 100%
- pre-emergence activity against LOLRI in % ([3]; application rate 320 g/ha): 100%
- pre-emergence activity against MATIN in % [4]: 100%
- pre-emergence activity against AMARE in % ([5]; application rate 320 g/ha): 90%
- pre-emergence activity against DIGSA in % ([6]; application rate 320 g/ha): 100%
- post-emergence activity against LOLRI in % ([7]; application rate 320 g/ha): 90%
- post-emergence activity against VERPE in % ([8]; application rate 320 g/ha): 90%
- post-emergence activity against AMARE in % ([9]; application rate 320 g/ha): 90%
- pre-emergence activity against MATIN in % ([10]; application rate 800 g/ha (so in the source)): 90%
- post-emergence activity against ALOMY in % [11]: 80%
- post-emergence activity against ECHCG in % [12]: 80%
- post-emergence activity against POLCO in % [13]: 90%

Compound: COC(=O)CCC(=O)N1CSc2cc(Cl)c(-c3ccccc3F)nc21 [Example I-003]
- pre-emergence activity against ABUTH in % [1]: 90%
- pre-emergence activity against ECHCG in % ([2]; application rate 1280 g/ha): 100%
- pre-emergence activity against LOLRI in % ([3]; application rate 320 g/ha): 100%
- pre-emergence activity against MATIN in % [4]: 90%
- pre-emergence activity against AMARE in % ([5]; application rate 1280 g/ha): 90%
- pre-emergence activity against DIGSA in % ([6]; application rate 1280 g/ha): 100%
- post-emergence activity against LOLRI in % ([7]; application rate 1280 g/ha): 90%
- post-emergence activity against VERPE in % ([8]; application rate 320 g/ha): 100%
- post-emergence activity against AMARE in % ([9]; application rate 1280 g/ha): 90%
- pre-emergence activity against MATIN in % ([10]; application rate 320 g/ha): 80%
- post-emergence activity against ALOMY in % [11]: 80%
- post-emergence activity against ECHCG in % [12]: 80%

Compound: Cc1cc2c(nc1-c1ccccc1F)N(S(=O)(=O)Cc1ccc(F)cc1)CS2 [Example I-122]
- pre-emergence activity against ABUTH in % [1]: 90%
- pre-emergence activity against ECHCG in % ([2]; application rate 320 g/ha): 100%
- pre-emergence activity against LOLRI in % ([3]; application rate 320 g/ha): 100%
- pre-emergence activity against MATIN in % [4]: 90%
- pre-emergence activity against AMARE in % ([5]; application rate 320 g/ha): 90%
- pre-emergence activity against DIGSA in % ([6]; application rate 320 g/ha): 100%
- post-emergence activity against LOLRI in % ([7]; application rate 1280 g/ha): 90%
- post-emergence activity against VERPE in % ([8]; application rate 320 g/ha): 90%
- post-emergence activity against AMARE in % ([9]; application rate 320 g/ha): 90%
- pre-emergence activity against MATIN in % ([10]; application rate 320 g/ha): 80%
- post-emergence activity against ALOMY in % [11]: 90%
- post-emergence activity against ECHCG in % [12]: 90%
- post-emergence activity against POLCO in % [13]: 90%

Compound: Fc1ccccc1-c1nc2c(cc1Br)SCN2 [Example I-001, 6-bromo-5-(2-fluorophenyl)-2,3-dihydro[1,3]thiazolo[4,5-b]pyridine]
- pest or weed control at 320 g/ha ([10]; Tripleurospermum inodorum, pre-emergence, 504 h, application rate 320 g/ha, read-out: pre-emergence activity against MATIN in %): 90%
- pest or weed control at 320 g/ha ([11]; Alopecurus myosuroides, post-emergence, 504 h, read-out: post-emergence activity against ALOMY in %): 90%
- pest or weed control at 320 g/ha ([14]; Amaranthus retroflexus, post-emergence, 504 h, read-out: post-emergence activity against AMARE in %): 80%
- pest or weed control at 320 g/ha ([12]; Echinochloa crus-galli, 504 h, read-out: post-emergence activity against ECHCG in %): 90%
- pest or weed control at 320 g/ha ([13]; Fallopia convolvulus, 504 h, read-out: post-emergence activity against POLCO in %): 90%

Compound: Cc1ccccc1-c1nc2c(cc1C)SCN2C(=O)C1(C)CC(Cl)=NO1 (centres unmarked) [Example I-137]
- pre-emergence activity against ABUTH in % [1]: 100%
- pre-emergence activity against ECHCG in % ([2]; application rate 320 g/ha): 100%
- pre-emergence activity against LOLRI in % ([3]; application rate 1280 g/ha): 100%
- pre-emergence activity against MATIN in % [4]: 90%
- pre-emergence activity against AMARE in % ([5]; application rate 320 g/ha): 100%
- pre-emergence activity against DIGSA in % ([6]; application rate 320 g/ha): 100%
- post-emergence activity against VERPE in % ([8]; application rate 1280 g/ha): 90%
- post-emergence activity against AMARE in % ([9]; application rate 320 g/ha): 90%
- pre-emergence activity against MATIN in % ([10]; application rate 320 g/ha): 90%
- post-emergence activity against ALOMY in % [11]: 80%
- post-emergence activity against AMARE in % [14]: 80%
- post-emergence activity against ECHCG in % [12]: 90%
- post-emergence activity against POLCO in % [13]: 80%
